Measurements published in PubChem BioAssay (NCI).
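Test compounds were applied to cells in 96-well plates for 48 hours at 5 doses. The concentration for 50% growth inhibition is given as GI50. At the TGI there is no net growth.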

Columns and labels:
Assay in all cases: inhibition of tumour cell growth, NCI panel, 48 h
OVCAR-3 ovarian = tested on: OVCAR-3 ovarian
SN12C renal = tested on: SN12C renal
RXF 393 renal = tested on: RXF 393 renal
A549 NSCLC = tested on: A549 NSCLC
MALME-3M melanoma = tested on: MALME-3M melanoma
HCT-116 colon = tested on: HCT-116 colon
HCT-15 colon = tested on: HCT-15 colon
COLO 205 colon = tested on: COLO 205 colon
MCF7 breast = tested on: MCF7 breast
KM12 colon = tested on: KM12 colon
NCI/ADR-RES ovarian = tested on: NCI/ADR-RES ovarian
OVCAR-5 ovarian = tested on: OVCAR-5 ovarian
SK-MEL-28 melanoma = tested on: SK-MEL-28 melanoma
HOP-92 NSCLC = tested on: HOP-92 NSCLC
SF-268 CNS = tested on: SF-268 CNS
M14 melanoma = tested on: M14 melanoma
MDA-MB-231 breast = tested on: MDA-MB-231 breast
SNB-75 CNS = tested on: SNB-75 CNS
NCI-H522 lung = tested on: NCI-H522 lung
CCRF-CEM leukemia = tested on: CCRF-CEM leukemia
PC-3 prostate = tested on: PC-3 prostate
SK-MEL-5 melanoma = tested on: SK-MEL-5 melanoma
NCI-H23 lung = tested on: NCI-H23 lung
UACC-257 melanoma = tested on: UACC-257 melanoma
BT-549 breast = tested on: BT-549 breast
HOP-62 NSCLC = tested on: HOP-62 NSCLC
MDA-MB-435 = tested on: MDA-MB-435
LOX IMVI melanoma = tested on: LOX IMVI melanoma
TK-10 renal = tested on: TK-10 renal
UO-31 renal = tested on: UO-31 renal
MOLT-4 leukemia = tested on: MOLT-4 leukemia
SF-295 CNS = tested on: SF-295 CNS
ACHN renal = tested on: ACHN renal
OVCAR-8 ovarian = tested on: OVCAR-8 ovarian
IGROV1 ovarian = tested on: IGROV1 ovarian
SNB-19 CNS = tested on: SNB-19 CNS
NCI-H226 lung = tested on: NCI-H226 lung
OVCAR-4 ovarian = tested on: OVCAR-4 ovarian
NCI-H460 lung = tested on: NCI-H460 lung
HT29 colon = tested on: HT29 colon
786-0 renal = tested on: 786-0 renal
SW-620 colon = tested on: SW-620 colon
K-562 leukemia = tested on: K-562 leukemia
RPMI-8226 leukemia = tested on: RPMI-8226 leukemia
UACC-62 melanoma = tested on: UACC-62 melanoma
U251 CNS = tested on: U251 CNS

`O=c1c(Cc2ccc3c(c2)OCO3)nnc2sc(-c3cc(F)c(Cl)cc3Cl)nn12` was tested, and the GI50 (OVCAR-3 ovarian) was 38 µM, the TGI (OVCAR-3 ovarian) was > 100 µM and the GI50 (SN12C renal) was 62.6 µM. For the same compound, the TGI (SN12C renal) was > 100 µM, the GI50 (RXF 393 renal) was 42.7 µM and the TGI (RXF 393 renal) was > 100 µM. The GI50 (A549 NSCLC) was 41.8 µM, the TGI (A549 NSCLC) was > 100 µM and the GI50 (MALME-3M melanoma) was 24.7 µM. For the same compound, the TGI (MALME-3M melanoma) was 85.3 µM, the GI50 (HCT-116 colon) was 23.5 µM and the TGI (HCT-116 colon) was > 100 µM. For the same compound, the GI50 (HCT-15 colon) was 70.6 µM, the TGI (HCT-15 colon) was > 100 µM and the GI50 (COLO 205 colon) was 22.6 µM. The TGI (COLO 205 colon) was 59.2 µM, the GI50 (MCF7 breast) was 38.9 µM and the TGI (MCF7 breast) was > 100 µM. For the same compound, the GI50 (KM12 colon) was 35.6 µM, the TGI (KM12 colon) was > 100 µM and the GI50 (NCI/ADR-RES ovarian) was 63.7 µM. The TGI (NCI/ADR-RES ovarian) was > 100 µM, the GI50 (OVCAR-5 ovarian) was 46.6 µM and the TGI (OVCAR-5 ovarian) was > 100 µM. For the same compound, the GI50 (SK-MEL-28 melanoma) was 32.2 µM, the TGI (SK-MEL-28 melanoma) was > 100 µM and the GI50 (HOP-92 NSCLC) was 23 µM. For the same compound, the TGI (HOP-92 NSCLC) was 88.4 µM, the GI50 (SF-268 CNS) was 41.7 µM and the TGI (SF-268 CNS) was > 100 µM. For the same compound, the GI50 (M14 melanoma) was > 100 µM, the TGI (M14 melanoma) was > 100 µM and the GI50 (MDA-MB-231 breast) was 44.9 µM. For the same compound, the TGI (MDA-MB-231 breast) was > 100 µM, the GI50 (SNB-75 CNS) was 28.5 µM and the TGI (SNB-75 CNS) was > 100 µM. The GI50 (NCI-H522 lung) was 33.4 µM, the TGI (NCI-H522 lung) was > 100 µM and the GI50 (CCRF-CEM leukemia) was 33.9 µM. For the same compound, the TGI (CCRF-CEM leukemia) was > 100 µM, the GI50 (PC-3 prostate) was 35.4 µM and the TGI (PC-3 prostate) was > 100 µM. For the same compound, the GI50 (SK-MEL-5 melanoma) was 19.3 µM, the TGI (SK-MEL-5 melanoma) was 50.7 µM and the GI50 (NCI-H23 lung) was 82.5 µM. The TGI (NCI-H23 lung) was > 100 µM, the GI50 (UACC-257 melanoma) was 62.5 µM and the TGI (UACC-257 melanoma) was > 100 µM. The GI50 (BT-549 breast) was 27.4 µM, the TGI (BT-549 breast) was 56 µM and the GI50 (HOP-62 NSCLC) was 18.1 µM. For the same compound, the TGI (HOP-62 NSCLC) was 64.7 µM, the GI50 (MDA-MB-435) was 52.9 µM and the TGI (MDA-MB-435) was > 100 µM. For the same compound, the GI50 (LOX IMVI melanoma) was 44.4 µM, the TGI (LOX IMVI melanoma) was > 100 µM and the GI50 (TK-10 renal) was 22.6 µM. For the same compound, the TGI (TK-10 renal) was 65 µM, the GI50 (UO-31 renal) was 50.2 µM and the TGI (UO-31 renal) was > 100 µM. For the same compound, the GI50 (MOLT-4 leukemia) was 36 µM, the TGI (MOLT-4 leukemia) was > 100 µM and the GI50 (SF-295 CNS) was 72.5 µM. The TGI (SF-295 CNS) was > 100 µM, the GI50 (ACHN renal) was 53.8 µM and the TGI (ACHN renal) was > 100 µM. The GI50 (OVCAR-8 ovarian) was 36.9 µM, the TGI (OVCAR-8 ovarian) was > 100 µM and the GI50 (IGROV1 ovarian) was 32.3 µM. The TGI (IGROV1 ovarian) was > 100 µM, the GI50 (SNB-19 CNS) was 34.3 µM and the TGI (SNB-19 CNS) was > 100 µM. The GI50 (NCI-H226 lung) was 85.6 µM, the TGI (NCI-H226 lung) was > 100 µM and the GI50 (OVCAR-4 ovarian) was 59.2 µM. The TGI (OVCAR-4 ovarian) was > 100 µM, the GI50 (NCI-H460 lung) was 50.8 µM and the TGI (NCI-H460 lung) was > 100 µM. The GI50 (HT29 colon) was 35.2 µM, the TGI (HT29 colon) was > 100 µM and the GI50 (786-0 renal) was 17.2 µM. The TGI (786-0 renal) was > 100 µM, the GI50 (SW-620 colon) was 19.4 µM and the TGI (SW-620 colon) was 49.1 µM. The GI50 (K-562 leukemia) was 42.8 µM, the TGI (K-562 leukemia) was > 100 µM and the GI50 (RPMI-8226 leukemia) was 30.6 µM. The TGI (RPMI-8226 leukemia) was > 100 µM, the GI50 (UACC-62 melanoma) was 75.8 µM and the TGI (UACC-62 melanoma) was > 100 µM. The GI50 (U251 CNS) was 35.7 µM and the TGI (U251 CNS) was > 100 µM.
